Measured values published in publication PMC10945556, “Design, Synthesis, and Antifungal Activity of 3-Substituted-2(5H)-Oxaboroles” (ACS Medicinal Chemistry Letters, 2024).
Converted amounts (≈) assume the structure as drawn.

Tests used:
[1] = test system: P. aeruginosa; assay: MIC, microbroth dilution; format: cell-based, Pseudomonas aeruginosa
[2] = test system: E. coli; assay: MIC, microbroth dilution; format: cell-based, Escherichia coli
[3] = test system: T. mentagrophytes; assay: MIC, dose-dependent solid media assay; format: cell-based, Trichophyton mentagrophytes
[4] = test system: P. chrysogenum; assay: MIC, dose-dependent solid media assay; format: cell-based, Penicillium chrysogenum
[5] = test system: Methicillin resistant Staphylococcus aureus; assay: MIC, microbroth dilution; format: cell-based; conditions: S. aureus (MRSA)
[6] = test system: A. flavus; assay: MIC, dose-dependent solid media assay; format: cell-based, Aspergillus flavus
[7] = test system: B. cereus; assay: MIC, microbroth dilution; format: cell-based, Bacillus cereus
[8] = test system: S. cerevisiae; assay: MIC, microbroth dilution; format: cell-based, Saccharomyces cerevisiae
[9] = test system: C. albicans; assay: MIC, microbroth dilution; format: cell-based, Candida albicans
[10] = Pseudomonas aeruginosa, value in parentheses
[11] = Escherichia coli, value in parentheses
[12] = Trichophyton mentagrophytes, value in parentheses
[13] = Penicillium chrysogenum, value in parentheses
[14] = Staphylococcus aureus, value in parentheses
[15] = Aspergillus flavus, value in parentheses
[16] = Bacillus cereus, value in parentheses
[17] = Saccharomyces cerevisiae, value in parentheses
[18] = Candida albicans, value in parentheses

| SMILES | MIC ([1]; Pseudomonas aeruginosa) | MIC [1, 10] | MIC ([2]; Escherichia coli) | MIC [2, 11] | MIC ([3]; Trichophyton mentagrophytes) | MIC [3, 12] | MIC ([4]; Penicillium chrysogenum) | MIC [4, 13] | MIC ([5]; Staphylococcus aureus) | MIC [5, 14] | MIC ([6]; Aspergillus flavus) | MIC [6, 15] | MIC ([7]; Bacillus cereus) | MIC [7, 16] | MIC ([8]; Saccharomyces cerevisiae) | MIC [8, 17] | MIC ([9]; Candida albicans) | MIC [9, 18] | further results |
| --- | --- | --- | --- | --- | --- | --- | --- | --- | --- | --- | --- | --- | --- | --- | --- | --- | --- | --- | --- |
| OB1OCC=C1c1ccccc1Cl [Compound 6g] | > 50 µg/mL | > 258 µM | > 50 µg/mL | > 258 µM | > 50 µg/mL | > 258 µM | > 50 µg/mL | > 258 µM | > 50 µg/mL | > 258 µM | > 50 µg/mL | > 258 µM | > 50 µg/mL | > 258 µM | 50 µg/mL | 258 µM | > 50 µg/mL | > 258 µM | – |
| C[C@@H]1C[C@@H]([C@H](O)CC2CC(=O)NC(=O)C2)C(=O)[C@@H](C)C1 [Cycloheximide, reference compound] | > 50 µg/mL | > 178 µM | > 50 µg/mL | > 178 µM | > 50 µg/mL | > 178 µM | 12.5 µg/mL | 44.4 µM | > 50 µg/mL | > 178 µM | > 50 µg/mL | > 178 µM | > 50 µg/mL | > 178 µM | 1.56 µg/mL | 5.54 µM | > 50 µg/mL | > 178 µM | – |
| OB1OCC=C1c1ccccc1 [Compound 6a] | > 50 µg/mL | > 313 µM | > 50 µg/mL | > 313 µM | > 50 µg/mL | > 313 µM | 50 µg/mL | 313 µM | > 50 µg/mL | > 313 µM | > 50 µg/mL | > 313 µM | > 50 µg/mL | 313 µM | 6.25 µg/mL | 39.1 µM | > 50 µg/mL | > 313 µM | – |
| COc1cccc(C2=CCOB2O)c1 [Compound 6o] | > 50 µg/mL | > 263 µM | > 50 µg/mL | > 263 µM | > 50 µg/mL | > 263 µM | 50 µg/mL | 263 µM | > 50 µg/mL | > 263 µM | > 50 µg/mL | > 263 µM | > 50 µg/mL | > 263 µM | 50 µg/mL | 263 µM | > 50 µg/mL | > 263 µM | – |
| OB1OCC=C1c1ccc(OC(F)(F)F)cc1 [Compound 6m] | > 50 µg/mL | > 205 µM | > 50 µg/mL | > 205 µM | 50 µg/mL | 205 µM | 12.5 µg/mL | 51.2 µM | > 50 µg/mL | > 205 µM | 50 µg/mL | 205 µM | > 50 µg/mL | > 205 µM | 29 ± 11 µg/mL | 119 µM | > 50 µg/mL | > 205 µM | – |
| OB1OCC=C1c1cccc(F)c1 [Compound 6c] | > 50 µg/mL | > 281 µM | > 50 µg/mL | > 281 µM | 50 µg/mL | 281 µM | 25 µg/mL | 140 µM | > 50 µg/mL | > 281 µM | 50 µg/mL | 281 µM | > 50 µg/mL | > 281 µM | 10.4 ± 2 µg/mL | 58.4 µM | > 50 µg/mL | > 281 µM | – |
| C[C@@H]1[C@H](O)[C@@H](C)/C=C/C=C/CC/C=C/C=C/C=C/C=C/C(O[C@H]2O[C@H](C)[C@@H](O)[C@H](N)[C@@H]2O)CC2O[C@](O)(CC(O)C(O)CCC(O)CC(O)CC(O)CC(=O)O[C@H]1C)CC(O)C2C(=O)O (some centres unmarked) [Nystatin, reference compound] | – | – | – | – | – | – | – | – | – | – | – | – | – | – | – | – | – | – | MIC PA [1]: > 50 µg/mL; MIC ([1]; value in parentheses): > 54.0 µM; MIC EC [2]: > 50 µg/mL; MIC ([2]; value in parentheses): > 54.0 µM; MIC TM [3]: 3.13 ± 0 µg/mL (≈ 3.38 µM); MIC ([3]; value in parentheses): 3.38 µM; MIC PC [4]: 1.56 ± 0 µg/mL (≈ 1.68 µM); MIC ([4]; value in parentheses): 1.68 µM; MIC SA [5]: > 50 µg/mL; MIC ([5]; value in parentheses): > 54.0 µM; MIC AF [6]: 2.6 ± 0.5 µg/mL (≈ 2.81 µM); MIC ([6]; value in parentheses): 2.81 µM; MIC BC [7]: > 50 µg/mL; MIC ([7]; value in parentheses): > 54.0 µM; MIC SC [8]: 1.56 ± 0 µg/mL (≈ 1.68 µM); MIC ([8]; value in parentheses): 1.68 µM; MIC CA [9]: 0.78 ± 0 µg/mL (≈ 0.842 µM); MIC ([9]; value in parentheses): 0.84 µM |
| OB1OCC=C1C1=CCCCC1 [Compound 6y] | > 50 µg/mL | > 305 µM | > 50 µg/mL | > 305 µM | > 50 µg/mL | > 305 µM | > 50 µg/mL | > 305 µM | > 50 µg/mL | > 305 µM | > 50 µg/mL | > 305 µM | > 50 µg/mL | > 305 µM | 21 ± 4 µg/mL | 128 µM | > 50 µg/mL | > 305 µM | – |
| Cc1ccccc1C1=CCOB1O [Compound 6v] | > 50 µg/mL | > 287 µM | > 50 µg/mL | > 287 µM | > 50 µg/mL | > 287 µM | > 50 µg/mL | > 287 µM | > 50 µg/mL | > 287 µM | > 50 µg/mL | > 287 µM | > 50 µg/mL | > 287 µM | > 50 µg/mL | > 287 µM | > 50 µg/mL | > 287 µM | – |
| Cc1cc(F)cc(C2=CCOB2O)c1 [Compound 6k] | > 50 µg/mL | > 260 µM | – | > 260 µM | 42 ± 8 µg/mL | 219 µM | 12.5 µg/mL | 65.1 µM | > 50 µg/mL | > 260 µM | 42 ± 8 µg/mL | 219 µM | > 50 µg/mL | > 260 µM | 12.5 µg/mL | 65.1 µM | > 50 µg/mL | > 260 µM | – |
| OB1OCC=C1c1ccccc1F [Compound 6d] | > 50 µg/mL | > 281 µM | > 50 µg/mL | > 281 µM | > 50 µg/mL | > 281 µM | 25 µg/mL | 140 µM | > 50 µg/mL | > 281 µM | > 50 µg/mL | > 281 µM | > 50 µg/mL | > 281 µM | 21 ± 4 µg/mL | 118 µM | > 50 µg/mL | > 281 µM | – |
| COc1ccc(C2=CCOB2O)cc1 [Compound 6n] | > 50 µg/mL | > 263 µM | > 50 µg/mL | > 263 µM | > 50 µg/mL | > 263 µM | > 50 µg/mL | > 263 µM | > 50 µg/mL | > 263 µM | > 50 µg/mL | > 263 µM | > 50 µg/mL | > 263 µM | > 50 µg/mL | > 263 µM | > 50 µg/mL | > 263 µM | – |
